Reference: patent US6172205A, “Synthetic process toward total synthesis of eleutherobin and its analogues and uses thereof” (The Trustees of Columbia in the City of New York, priority 1998, dated 2001)
Entries after “also recorded” stand apart in the source; their conditions may differ.

Experiments:
[1] = tested on: Human ovarian carcinoma cells SKOV3; assay: Cytotoxicity by counting cells after 72 h, Taxol-sensitive cells; type: cell-based; conditions: SK-OV-3, 72 h
Protocol: (§1) Human non-small cell lung carcinoma cells, A549, were maintained in RPMI 1640 containing 10% fetal bovine serum and 1% penicillin-streptomycin (Gibco Laboratories, Grand Island N.Y.) at 37° C. in 7% CO2. The Taxol-resistant cell line A549-T12 was selected for resistance to Taxol and maintained in a final concentration of 12 nM drug (21). Human ovarian carcinoma cells SKOV3 and the MDR variant SKVBL (obtained from Dr. V. Ling) were maintained in α-mem plus ribonucleotides, deoxynucleotides, 15% fetal bovine serum and 1% penicillin-streptomycin (Gibco Laboratories) at 37° C. in 5% CO2. SKVBL cells were maintained in […] vinblastine (Sigma Chemical Co.).
(§2) Taxol-resistant and sensitive cell lines were seeded into 12-well plates at a density of 5×10^4 cells per well and allowed a period of 12 h for attachment prior to treatment. Cells were exposed to 10-fold serial dilutions of each compound (10^-10 to 10^-6 M) for 72 h. Cells were then trypsinized and counted (Coulter counter model ZF0031, Coulter Corp., Miami, Fla.). The IC50 was determined by plotting cell number against log of the drug concentration and this was used to determine the concentration of compound resulting in 50% growth inhibition compared to untreated cells. Each cell line was assayed in a minimum of 3 independent experiments with each compound and the results expressed as the mean IC50.
(§3) ^a Cytotoxicity determined by counting cells after 72 h drug exposure.

[2] = tested on: MDR1 expressing cell line derived from human colon carcinoma HCT 116 cells; conditions: cited from earlier work
[3] = tested on: tubulin / microtubule protein; assay: Tubulin polymerization by turbidity at 350 nm in the absence of GTP; type: biochemical, calf; conditions: 10 μM, 37 °C, relative to 10 μM Taxol (100%)
Protocol: (§4) Eleutherobin and its derivatives were synthesized as described (18,19). Taxol was obtained from the Drug Development Branch, National Cancer Institute (Bethesda, Md.). All compounds were dissolved in dimethyl sulfoxide (Sigma Chemical Co., St. Louis, Mo.) at stock concentrations of 5 mM and stored at -20° C. All control samples contained an equal volume of DMSO. GTP was obtained from Sigma Chemical Co. And dissolved in sterile distilled water at a concentration of 10 mM and stored at -20° C. Microtubule protein was purified from calf brains by two cycles of temperature-dependent assembly and disassembly (20) and stored in liquid nitrogen prior to use. The anti-mouse β-tubulin monoclonal antibody T-4026 was obtained from Sigma Chemical Co.
The ability of each compound to polymerize tubulin was evaluated by recording the change in turbidity of microtubule protein at 350 nm for 80 min in a spectrophotometer (UVIKON, Research Instruments Int., SD, Calif.). One mg of purified microtubule protein was diluted in assembly buffer containing 0.1 M MES, 1 mM EGTA, 0.5 mM MgCl2 and 3 M glycerol, pH 6.6. All compounds were evaluated at a concentration of 10 μM at 37° C. […] Microtubule stability was assessed by the addition of 10 mM Ca^++. changes from t=0-10 min were used to calculate initial slopes from the linear portion of each curve. These values were used to calculate the activity of each compound (relative to the activity of Taxol which was assigned a value of 100%).
The polymerization activity of these compounds was also assessed by determining the slope of the linear portion of each curve at A350 nm (t=0-10 min), and expressing this relative to Taxol (which was assigned a value of 100% (FIG. 8). The order of activity of eleutherobin and derivatives using this method, corroborates the results obtained from cytotoxicity studies.

[4] = tested on: SKVBL (MDR variant of SKOV3); assay: Cytotoxicity by counting cells after 72 h, MDR variant cells; type: cell-based, human
Protocol: as §1, §2
(§5) The cytotoxic efficacy of eleutherobin and its derivatives (FIG. 6) was evaluated in two drug sensitive human cancer cell lines and their Taxol-resistant counterparts. The results are summarized in Table I in order of decreasing potency. […] The Taxol-resistant cell line SKVBL overexpresses high levels of P-glycoprotein (22). […] The only difference between the two agents is the enantiomeric relationship in the carbohydrate (2'-acetylarabinose) sector (FIG. 6). […] This cell line expressed high levels of MDR1 resulting in Taxol-resistance equal or greater than 1666 -fold compared to the Taxol-sensitive SKOV3 cell line.
as §3

microtubules = conditions: cited from earlier work
P-glycoprotein = P-glycoprotein substrate behaviour inferred from resistance of SKVBL cells; type: cell-based, human
Protocol: as §1, §2, §5

[5] = tested on: A549-T12 (Taxol-resistant A549); assay: Cytotoxicity by counting cells after 72 h, Taxol-resistant cells; type: cell-based, human
Protocol: as §1, §2, §5, §3

microtubule protein = assay: Stability of microtubules against Ca++-induced depolymerization; type: biochemical, calf; conditions: 10 mM CaCl2
Protocol: as §4
The ability of each compound to polymerize tubulin was evaluated by recording the change in turbidity of microtubule protein at 350 nm for 80 min in a spectrophotometer (UVIKON, Research Instruments Int., SD, Calif.). One mg of purified microtubule protein was diluted in assembly buffer containing 0.1 M MES, 1 mM EGTA, 0.5 mM MgCl2 and 3 M glycerol, pH 6.6. All compounds were evaluated at a concentration of 10 μM at 37° C. GTP was used at a final concentration of 1 mM. Microtubule stability was assessed by the addition of 10 mM Ca^++. changes from t=0-10 min were used to calculate initial slopes from the linear portion of each curve. These values were used to calculate the activity of each compound (relative to the activity of Taxol which was assigned a value of 100%).
The ability of each compound to polymerize and/or stabilize microtubules was assessed (FIG. 7). To investigate whether eleutherobin and its derivatives shared the microtubule stabilizing properties of Taxol, 10 mM CaCl2 was added to each sample after maximum microtubule polymerization occurred, and the effects on turbidity recorded spectrophotometrically. A positive control was included in which 1 mM GTP was used to confirm the ability of GTP-stabilized microtubules to undergo Ca^++ induced depolymerization.
The ability of this compound to stabilize microtubules formed in the presence of GTP was examined. After a period of 15 min, 10 mM Ca^++ was added and the change in turbidity recorded.

[6] = tested on: Human non-small cell lung carcinoma cells, A549; assay: Cytotoxicity by counting cells after 72 h, Taxol-sensitive cells; type: cell-based
Protocol: Taxol-resistant and sensitive cell lines were seeded into 12-well plates at a density of 5×10^4 cells per well and allowed a period of 12 h for attachment prior to treatment. […] Cells were then trypsinized and counted (Coulter counter model ZF0031, Coulter Corp., Miami, Fla.).

tumor cell lines = conditions: variety of tumor cell lines; cited from earlier work

In the case of `CO[C@]12C=C[C@](C)(O1)[C@@H](OC(=O)/C=C/c1cn(C)cn1)C[C@H]1C(C)=CC[C@H](C(C)C)[C@H]1/C=C\2CO[C@@H]1OC[C@@H](O)[C@@H](O)[C@@H]1OC(C)=O` [Eleutherobin], the IC50 [1] is given as 9.5 nM, the “cross-resistance in MDR1 expressing HCT 116-derived cells (in words)” value [2] is given as “demonstrated cross-resistance in an MDR1 expressing cell line” and the “polymerization activity relative to Taxol” value [3] is given as 94%. The IC50 ([4]; Homo sapiens, SK-OV-3, Ovarian Carcinoma SKOV3, Resistant (SKVBL), 72 h, mean of at least three independent experiments) was over 1000 nM, the “cross-resistance in SKVBL (in words)” value ([4]; MDR1 expressing cells, high P-glycoprotein) was “exhibited cross-resistance in an MDR1 expressing cell line; also recorded: demonstrated cross-resistance” and the “fold resistance relative to the parental cell line” value ([4]; SKVBL vs SKOV3) was at least 1052 fold. The “effect on microtubules (in words)” value (microtubules) was “potentiates the assembly of stable microtubules resistant to depolymerization; also recorded: promotes the polymerization of stable microtubules”, the “P-glycoprotein substrate (in words)” value (P-glycoprotein) was “excellent substrates for P-glycoprotein” and the “fold resistance relative to the parental cell line” value ([5]; A549-T12 vs A549, 4320 min) was 1.9 fold. The IC50 ([5]; Homo sapiens, Lung Carcinoma A549, Resistant (A549-T12), 72 h, mean of at least three independent experiments) was 12.2 nM, the “cross-resistance in A549-T12 (in words)” value ([5]; Taxol-resistant, not expressing P-glycoprotein) was “neither eleutherobin nor neo-eleutherobin displayed cross-resistance; also recorded: neither of these compounds showed cross-resistance” and the “stabilization against Ca++-induced depolymerization (in words)” value (microtubule protein) was “stabilized microtubules against Ca^++ -induced depolymerization”. The IC50 ([6]; Homo sapiens, A549, 72 h) was 6 nM, the “fold less potent than Taxol” value ([6]; both sensitive cell lines (A549, SKOV3)) was 3 fold and the “cytotoxicity (in words)” value ([6]; sensitive cell lines (A549, SKOV3)) was “IC50 value comparable at Taxol; also recorded: within the nM range”. The “potency in tumor cell lines (in words)” value (tumor cell lines) was “excellent potency in a variety of tumor cell lines”.
